Laboratory results reported in patent US20230212202A1, “TREATMENT OF MGMT DEFICIENT CANCER WITH 2-FLUOROETHYL-SUBSTITUTED NITROSOUREAS AND OTHER COMPOUNDS” (YALE UNIVERSITY, priority 2021, published 2023).
Where “and” joins values, the source holds several entries; their conditions need not be identical. Identical values can stand only once. Like-named read-outs stand apart in the source and are kept apart here. Blank lines part the entries; values can stand above or below the compound they belong to.

Tests used:
[1] = system: LN229 human brain glioblastoma cells MGMT- MMR-; assay: Anticancer activity towards LN229 cells (Example 15); type: cell-based; settings: read-out: MGMT -MMR-Activity
Experimental: (§1) LN229 quad cells were maintained in Dulbecco’s Modified Eagle Medium (DMEM) supplemented with 10% fetal bovine serum. Cells were plated into sterile black with glass bottom 384-well plates (Cellvis) at a concentration of 1,000 cells/well (20 µL total volume) using a MultiDrop (Thermo Fisher). Then, assay plates were centrifuged at 300 rpm for 2 seconds and incubated overnight in a 37° C. 5% CO2 incubator. Compounds were prepared as 100 mM stocks in DMSO and stored protected from light at -20′C until use. Prior to compound addition, the stock solutions of compound were diluted two-fold serially in DMSO from 100 mM down to 0.05 mM in a 384-well Source plate. Vehicle control wells containing DMSO and positive control wells containing 10 mM bortezomib were also added to the Source plate. An aliquot in the amount of 40 nL of compound stock solution or DMSO vehicle was transferred from the source plate to the cell assay plate using an Echo Acoustic dispense (Beckman). Three replicate dilution curves of each compound were run on each assay plate. An aliquot in the amount of 120 nL of a 10 mM bortezomib solution was transferred to the positive control wells resulting in a final concentration of 60 µM. The final concentration of compounds ranged from 200 µM to 0.1 µM (12-point, 2-fold dilution dose response curve), and the final DMSO concentration was 0.2%.
(§2) Assay plates were centrifuged at 500 rpm for 2 seconds and incubated for 120 hours at 37° C. in a humidified 5% CO2 incubator. Following incubation, cells were fixed with 4% paraformaldehyde and stained with DAPI for nuclei visualization. The images were acquired on the InCell 2200 high content imager (GE, now […]), and quantified using InCell Analyzer image analysis software. Z prime factor, signal-to-background and coefficient of variation were calculated for each assays plate using mean and standard deviation values of the negative (vehicle) and positive (bortezomib) control wells to ensure assay robustness. Raw cell count data for test compounds was normalized to percent viability relative to the DMSO vehicle control. Data was plotted in GraphPad Prism using a variable slope 4-parameter fit.

[2] = system: LN229 human brain glioblastoma cells MGMT+ MMR+; assay: as above; type: cell-based; settings: read-out: MGMT+ MMR+ Activity
Experimental: as §1, §2

[3] = system: LN229 human brain glioblastoma cells MGMT+ MMR-; assay: as above; type: cell-based; settings: read-out: MGMT+ MMR -Activity
Experimental: as §1, §2

[4] = system: LN229 human brain glioblastoma cells MGMT- MMR+; assay: as above; type: cell-based; settings: read-out: MGMT -MMR + Activity
Experimental: as §1, §2

LN229 MGMT-/MMR- cells [5] = assay: Short-term cell viability assay; type: cell-based, human; settings: LN229 MGMT-/MMR- cells
[6] = system: LN229 MGMT+/-, MMR+/- cells; assay: Short-term cell viability assay, four isogenic LN229 glioblastoma cell lines; type: cell-based, human
[7] = 37° C., pH 7.4; cited from earlier work
[8] = system: LN229 MGMT+/-, MMR+/- cells; assay: Clonogenic survival assay; type: cell-based, human
Experimental: Clonogenic Cell Survival Assay. Cells were trypsinized, washed, counted, and diluted in a medium containing various concentrations of drug. They were then immediately seeded in six-well plates in triplicate at three-fold dilutions, ranging from 9000 to 37 cells per well. Depending on colony size, these plates were kept in the incubator for 10 to 14 days. After incubation, colonies were washed in phosphate-buffered saline (PBS), stained with crystal violet, counted, and quantified.

[9] = system: PD20 cells, FANCD2-/- or +FANCD2; assay: Short-term viability assay; type: cell-based, human; settings: PD20 FANCD2-/- vs +FANCD2
LN229 MGMT-/MMR+ cells = assay: IR alkaline comet assay; type: cell-based, human
[10] = system: DLD1 BRCA2+/- and BRCA2-/- cells; assay: Short-term viability assay with or without O6BG; type: cell-based, human; settings: for sensitivity of BRCA2-/- cells: DLD1, ±O6BG; for therapeutic index (TI), ratio of IC50 values in MGMT+/BRCA2+ cells compared to MGMT-/BRCA2- cells: DLD1 isogenic model
[11] = system: PEO4 (BRCA2+) and PEO1 (BRCA2-/-) cells; assay: Short-term viability assay with or without O6BG; type: cell-based, human; settings: for therapeutic index (TI): PEO1/4 model; for sensitivity of BRCA2-/- cells: PEO1/PEO4, ±O6BG
[12] = system: linearized pUC19 plasmid DNA; assay: Melting temperature assay; type: biochemical; settings: 100 or 500 µM, 3 h
LN229 MGMT-/MMR- cells [13] = assay: IR alkaline comet assay; type: cell-based, human; settings: 200 µM, 2-24 h
[14] = system: LN229 MGMT-/MMR- flank tumors; assay: Xenograft flank tumor model; type: in vivo, mouse; settings: 5 mg/kg MWF × 3 weeks
[15] = system: DLD1 MSH6-deficient cells; assay: Short-term viability assay with or without O6BG; type: cell-based, human; settings: with or without O6BG-induced MGMT depletion
Source text: (§3) Short-term Cell Viability Assay.

[16] = system: HCT116 MLH1-/- cells or HCT116 +Chr3 cells; assay: Short-term viability assay with or without O6BG; type: cell-based, human
Source text: as §3

[17] = Homo sapiens, LN-229, 120 hours

SMILES: O=NN(CCF)C(=O)NCCCl
IC50 ([1]; Homo sapiens, LN-229, 120 h): < 50 µM
IC50 ([2]; Homo sapiens, LN-229, 120 h): > 90 µM
IC50 ([3]; Homo sapiens, LN-229, 120 h): > 90 µM
IC50 ([4]; Homo sapiens, LN-229, 120 h): 50 to 90 µM

IC50 [1, 17]: < 50 µM
IC50 [2, 17]: > 90 µM
IC50 [3, 17]: 50 to 90 µM
IC50 [4, 17]: < 50 µM
SMILES: O=NN(CCF)C(=O)NC1CCCCC1

SMILES: CCOP(=O)(OCC)C(C)NC(=O)N(CCF)N=O (centres unmarked)
IC50 ([1]; 120 hours): < 50 µM
IC50 ([2]; 120 hours): > 90 µM
IC50 ([3]; 120 hours): > 90 µM
IC50 ([4]; 120 hours): > 90 µM

SMILES: Cc1ncc(CNC(=O)N(CCF)N=O)c(N)n1
IC50 ([1]; Homo sapiens, LN-229, 120 h): < 50 µM
IC50 [2, 17]: > 90 µM
IC50 [3, 17]: > 90 µM
IC50 [4, 17]: > 90 µM

SMILES: CC(F)CN/N=N/c1[nH]cnc1C(N)=O (centres unmarked) [Compound 10]
potency in MGMT-/MMR- cells (LN229 MGMT-/MMR- cells [5]): reduced potency

SMILES: NC(=O)c1nc[nH]c1/N=N/NCCCF [Compound 11]
activity in the four LN229 cell lines ([6]; MGMT+/-, MMR+/-): low activity in all four cell lines

SMILES: Nc1nc(OCCF)c2ncn([C@@H]3O[C@H](CO)[C@@H](O)[C@H]3O)c2n1 [Compound S1, O^6-(2-fluoroethyl)guanosine]
half-life of hydrolysis [7]: 18.5 h and ~ 18.5 h

SMILES: Nc1nc(OCCCl)c2ncn([C@@H]3O[C@H](CO)[C@@H](O)[C@H]3O)c2n1 [Compound S4, O^6-(2-chloroethyl)guanosine]
half-life of hydrolysis [7]: ~ 18 min

SMILES: O=NN(CCCl)C(=O)NC1CCCCC1 [Lomustine, lomustine, reference compound]
clonogenic survival, MGMT+ cells ([8]; LN229 MGMT+ cells): cytotoxic to MGMT+ cells
clonogenic survival, MGMT- cells ([8]; LN229 MGMT- cells, MMR+/-): effective in MMR- cells

SMILES: CO[C@@]12[C@H](COC(N)=O)C3=C(C(=O)C(C)=C(N)C3=O)N1C[C@@H]1N[C@@H]12 [MMC, Mitomycin C]
sensitivity of FANCD2-deficient cells [9]: hypersensitivity to crosslinking agents in FANCD2-/-cells
IR-induced comet tail (ICL detection) (LN229 MGMT-/MMR+ cells; 0.1 µM, 24 h): partial reduction in the IR-induced comet tail
IR-induced comet tail (ICL detection) (LN229 MGMT-/MMR+ cells; 50 µM, 2 h): completely abolished the IR-induced comet tail
comet tailing in the absence of IR (LN229 MGMT-/MMR+ cells; TMZ, KL-50 200 µM, MMC 0.1 or 50 µM): did not
sensitivity of BRCA2-/- cells [10]: hypersensitivity of DLD1 BRCA2-/- cells to crosslinking agents independent of MGMT depletion
therapeutic index (TI), ratio of IC50 values in MGMT+/BRCA2+ cells compared to MGMT-/BRCA2- cells [10]: 26 fold
therapeutic index (TI) [11]: 7 fold
sensitivity of BRCA2-/- cells [11]: hypersensitivity of PEO4 BRCA2-/-cells to crosslinking agents independent of MGMT depletion

SMILES: COS(C)(=O)=O [MMS, Methylmethane sulfonate, reference compound]
DNA melting temperature [12]: comparable changes in measured DNA melting temperature

SMILES: NC(=O)c1ncn2c(=O)n(CCCl)nnc12 [MTZ, mitozolomide, reference compound]
selectivity for MGMT-deficient cells ([6]; LN229, listed as 12a): ~ 7 fold
DNA damage in unirradiated samples, time course (LN229 MGMT-/MMR- cells [13]; 0 Gy): maximal damage at 2 h
DNA mobility after IR, time course (LN229 MGMT-/MMR- cells [13]; 10 Gy): reduced DNA mobility within 2 h

SMILES: Cn1nnc2c(C(N)=O)ncn2c1=O [TMZ, temozolomide, reference compound]
tumor growth ([14]; P.O.): no efficacy
median OS ([14]; Kaplan-Meier): 10 weeks
IC50 (LN229 MGMT-/MMR- cells [5]; Homo sapiens, LN-229, read-out: IC50): 838 µM
activity in DLD1 cells [15]: inactive
activity in HCT116 cells [16]: inactive

SMILES: N.N.[Cl][Pt][Cl] [cisplatin]
sensitivity of FANCD2-deficient cells [9]: hypersensitivity to crosslinking agents in FANCD2-/-cells
sensitivity of BRCA2-/- cells [10]: hypersensitivity of DLD1 BRCA2-/- cells to crosslinking agents independent of MGMT depletion
therapeutic index (TI), ratio of IC50 values in MGMT+/BRCA2+ cells compared to MGMT-/BRCA2- cells [10]: 42 fold
therapeutic index (TI) [11]: 13 fold
sensitivity of BRCA2-/- cells [11]: hypersensitivity of PEO4 BRCA2-/-cells to crosslinking agents independent of MGMT depletion
